In ChEMBL document CHEMBL1153145, “Novel lead for potent inhibitors of breast cancer resistance protein (BCRP)” (Bioorg Med Chem Lett, 2010):

Columns and labels:
[1] = molecular target: T1, Broad substrate specificity ATP-binding cassette transporter ABCG2 (Homo sapiens, UniProt Q9UNQ0); assay: Inhibition of BCRP expressed in MCF7 MX cells by Hoechst 33342 staining; type: cell-based
T1 sequence (Q9UNQ0 whole entry): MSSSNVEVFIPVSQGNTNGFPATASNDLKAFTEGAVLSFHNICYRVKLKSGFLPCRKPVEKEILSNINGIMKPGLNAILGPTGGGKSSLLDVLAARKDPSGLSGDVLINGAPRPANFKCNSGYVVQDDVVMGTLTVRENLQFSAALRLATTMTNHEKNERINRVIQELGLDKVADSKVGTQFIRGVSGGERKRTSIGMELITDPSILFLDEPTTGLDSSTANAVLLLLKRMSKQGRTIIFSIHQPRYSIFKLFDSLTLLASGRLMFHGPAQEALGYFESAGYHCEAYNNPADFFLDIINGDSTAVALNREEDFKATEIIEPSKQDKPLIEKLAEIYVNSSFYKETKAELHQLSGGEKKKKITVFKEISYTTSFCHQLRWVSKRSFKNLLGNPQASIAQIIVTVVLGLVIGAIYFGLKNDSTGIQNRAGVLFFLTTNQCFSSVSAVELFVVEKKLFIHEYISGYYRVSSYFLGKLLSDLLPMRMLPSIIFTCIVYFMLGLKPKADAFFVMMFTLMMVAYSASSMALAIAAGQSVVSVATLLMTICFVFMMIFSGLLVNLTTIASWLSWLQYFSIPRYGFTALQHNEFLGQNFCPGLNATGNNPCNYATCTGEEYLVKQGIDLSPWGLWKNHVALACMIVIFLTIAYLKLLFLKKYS

[2] = molecular target: T1, Broad substrate specificity ATP-binding cassette transporter ABCG2; assay: Inhibition of BCRP expressed in MDCK cells by pheophorbide A assay; type: cell-based
[3] = molecular target: Multidrug resistance-associated protein 1 (Homo sapiens, UniProt P33527); assay: Inhibition of MRP1 assessed as calcein AM accumulation by fluorescence assay
Sequence of Multidrug resistance-associated protein 1 (P33527 whole entry): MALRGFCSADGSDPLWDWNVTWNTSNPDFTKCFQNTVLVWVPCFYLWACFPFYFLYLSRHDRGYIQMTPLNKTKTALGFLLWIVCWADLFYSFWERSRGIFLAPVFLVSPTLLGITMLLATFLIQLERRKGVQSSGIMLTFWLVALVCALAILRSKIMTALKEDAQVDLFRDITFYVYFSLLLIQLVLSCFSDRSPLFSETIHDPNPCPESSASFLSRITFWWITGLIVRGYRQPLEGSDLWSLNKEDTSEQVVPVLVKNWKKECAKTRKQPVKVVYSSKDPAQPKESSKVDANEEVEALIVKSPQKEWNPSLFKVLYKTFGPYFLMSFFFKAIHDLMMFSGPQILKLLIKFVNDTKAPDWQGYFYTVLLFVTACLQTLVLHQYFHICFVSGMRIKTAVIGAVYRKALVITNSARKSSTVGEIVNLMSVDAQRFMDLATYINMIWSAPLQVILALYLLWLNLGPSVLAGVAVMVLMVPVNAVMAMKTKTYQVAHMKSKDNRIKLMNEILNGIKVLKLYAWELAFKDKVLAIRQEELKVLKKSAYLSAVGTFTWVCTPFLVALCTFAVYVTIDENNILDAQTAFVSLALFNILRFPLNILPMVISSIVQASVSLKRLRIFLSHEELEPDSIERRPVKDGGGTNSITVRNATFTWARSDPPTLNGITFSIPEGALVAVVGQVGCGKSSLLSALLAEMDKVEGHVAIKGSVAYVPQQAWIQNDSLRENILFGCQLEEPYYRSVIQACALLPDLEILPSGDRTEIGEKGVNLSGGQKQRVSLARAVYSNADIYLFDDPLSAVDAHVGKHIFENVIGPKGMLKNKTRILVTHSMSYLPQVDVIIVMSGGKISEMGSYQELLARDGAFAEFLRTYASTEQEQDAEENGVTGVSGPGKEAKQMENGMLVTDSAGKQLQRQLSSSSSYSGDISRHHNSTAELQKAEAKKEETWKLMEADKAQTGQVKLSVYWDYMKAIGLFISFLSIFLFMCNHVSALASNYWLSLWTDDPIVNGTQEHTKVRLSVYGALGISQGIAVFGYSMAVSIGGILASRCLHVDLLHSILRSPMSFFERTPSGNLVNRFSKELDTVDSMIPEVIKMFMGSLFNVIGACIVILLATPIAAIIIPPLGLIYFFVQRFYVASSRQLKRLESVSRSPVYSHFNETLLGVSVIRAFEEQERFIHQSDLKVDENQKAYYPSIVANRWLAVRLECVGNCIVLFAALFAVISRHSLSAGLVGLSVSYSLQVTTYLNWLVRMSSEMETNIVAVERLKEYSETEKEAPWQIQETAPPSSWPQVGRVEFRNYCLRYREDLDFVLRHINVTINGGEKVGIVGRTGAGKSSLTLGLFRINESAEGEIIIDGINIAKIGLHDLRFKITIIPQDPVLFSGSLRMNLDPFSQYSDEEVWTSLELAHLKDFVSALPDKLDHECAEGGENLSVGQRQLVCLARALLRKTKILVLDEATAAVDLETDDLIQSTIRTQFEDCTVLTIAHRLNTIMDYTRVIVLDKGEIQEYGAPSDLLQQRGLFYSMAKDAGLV

Row | Compound | IC50 [1] [µM] | IC50 [2] [µM] | IC50 [3] [µM]
1 | COc1ccc(C(=O)Nc2ccccc2C(=O)Nc2ccc(CCN3CCc4cc(OC)c(OC)cc4C3)cc2)cc1OC | 0.93 | 0.86 | > 20
2 | O=C(Nc1ccc(CCN2CCc3ccccc3C2)cc1)c1ccccc1[N+](=O)[O-] | 51.3 | 45.7 | –
3 | Nc1ccccc1C(=O)Nc1ccc(CCN2CCc3ccccc3C2)cc1 | 17.8 | 20.9 | –
4 | COc1cc2c(cc1OC)CN(CCc1ccc(NC(=O)c3ccc(N)cc3)cc1)CC2 | 219 | 98.2 | –
5 | COc1cc2c(cc1OC)CN(CCc1ccc(NC(=O)c3cc(OC)c(OC)cc3NC(=O)c3cnc4ccccc4c3)cc1)CC2 | 0.68 | 0.85 | –
6 | COc1cc2c(cc1OC)CN(CCc1ccc(NC(=O)c3ccccc3N)cc1)CC2 | 32.4 | 20.7 | –
7 | COc1cc2c(cc1OC)CN(CCc1ccc(NC(=O)c3ccccc3[N+](=O)[O-])cc1)CC2 | 77.6 | 40 | –
8 | COc1cc2c(cc1OC)CN(CCc1ccc(NC(=O)Nc3ccccc3N)cc1)CC2 | 66.1 | 58.4 | –
9 | Nc1ccccc1NC(=O)Nc1ccc(CCN2CCc3ccccc3C2)cc1 | 102 | 74.1 | –
10 | COc1cc2c(cc1OC)CN(CCc1ccc(NC(=O)Nc3ccc(N)cc3)cc1)CC2 | 74.1 | 46.4 | –
11 | COc1cc2c(cc1OC)CN(CCc1ccc(NC(=O)Nc3ccc([N+](=O)[O-])cc3)cc1)CC2 | 3.89 | 2.61 | –
12 | COc1cc2c(cc1OC)CN(CCc1ccc(NC(=O)Nc3ccccc3[N+](=O)[O-])cc1)CC2 | 10.2 | 9.08 | –
13 | O=C(Nc1ccc(CCN2CCc3ccccc3C2)cc1)Nc1ccccc1[N+](=O)[O-] | 6.76 | 8.71 | –
14 | COc1cc2c(cc1OC)CN(CCc1ccc(NC(=O)c3ccc([N+](=O)[O-])cc3)cc1)CC2 | 6.92 | 4.38 | –
15 | COc1cc2c(cc1OC)CN(CCc1ccc(NC(=O)c3ccccc3NC(=O)Nc3ccc([N+](=O)[O-])cc3)cc1)CC2 | 0.54 | 0.5 | > 20
16 | COc1cc2c(cc1OC)CN(CCc1ccc(NC(=O)c3ccccc3NC(=O)c3ccc([N+](=O)[O-])cc3)cc1)CC2 | 0.69 | 0.63 | > 20
17 | COc1ccc(C(=O)Nc2ccccc2NC(=O)Nc2ccc(CCN3CCc4cc(OC)c(OC)cc4C3)cc2)cc1OC | 10.2 | 6.98 | –
